Experimental data as given in ChEMBL document CHEMBL1136617, “Cyclic amidines as benzamide bioisosteres: EPC synthesis and SAR studies leading to the selective dopamine D4 receptor agonist FAUC 312” (Bioorg Med Chem Lett, 2003).

Key:
D(3) dopamine receptor [1] = target: T1, D(3) dopamine receptor (Homo sapiens, UniProt P35462); test: biochemical
D(4) dopamine receptor [2] = target: T2, D(4) dopamine receptor (Homo sapiens, UniProt P21917); test: biochemical; type: cell-based, CHO
T2 sequence (P21917 whole entry): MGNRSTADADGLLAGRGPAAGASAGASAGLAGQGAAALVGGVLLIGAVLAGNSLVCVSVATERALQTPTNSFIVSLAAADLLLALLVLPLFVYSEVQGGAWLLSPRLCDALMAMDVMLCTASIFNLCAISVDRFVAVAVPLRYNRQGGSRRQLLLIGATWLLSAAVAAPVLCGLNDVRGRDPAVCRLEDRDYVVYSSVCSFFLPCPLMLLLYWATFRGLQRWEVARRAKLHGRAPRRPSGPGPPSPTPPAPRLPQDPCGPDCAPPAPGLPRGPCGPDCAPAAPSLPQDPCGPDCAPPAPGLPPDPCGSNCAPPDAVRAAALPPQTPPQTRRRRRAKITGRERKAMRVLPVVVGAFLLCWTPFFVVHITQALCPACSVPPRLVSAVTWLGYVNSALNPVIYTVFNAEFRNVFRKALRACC
Description: In vitro binding affinity to displace [3H]spiperone from the cloned human dopamine receptor D4 in CHO cells

D(2) dopamine receptor [3] = target: T3, D(2) dopamine receptor (Homo sapiens, UniProt P14416); test: biochemical; type: cell-based, CHO
Description: In vitro binding affinity to displace [3H]-spiperone from the cloned human dopamine receptor D2 short in CHO cells

D(2) dopamine receptor [4] = target: T3, D(2) dopamine receptor; test: biochemical; type: cell-based, CHO; remark: listed apart in the source
D(1A) dopamine receptor = D(1A) dopamine receptor (Bos taurus, UniProt Q95136); test: In vitro Binding affinity towards dopamine D1 receptor using bovine striatal membrane preparations and antagonist [3H]-SCH- 23390; set-up: species or system Striatum
D(2) dopamine receptor [5] = target: T3, D(2) dopamine receptor; test: In vitro ability to displace [3H]spiperone from the cloned human dopamine D2 long receptor expressed in CHO cells; type: cell-based
D(4) dopamine receptor [6] = target: T2, D(4) dopamine receptor; test: Effective concentration for [3H]thymidine uptake in growing CHO cells stably expressing the dopamine D4.2 receptor; type: cell-based
D(4) dopamine receptor [7] = target: T2, D(4) dopamine receptor; test: In vitro ability to displace [3H]spiperone from the cloned human dopamine D4 receptor expressed in CHO cells; type: cell-based
D(2) dopamine receptor [8] = target: T3, D(2) dopamine receptor; test: In vitro ability to displace [3H]spiperone from the cloned human dopamine D2 short receptor expressed in CHO cells; type: cell-based
D(3) dopamine receptor [9] = target: T1, D(3) dopamine receptor; test: In vitro ability to displace [3H]spiperone from cloned human dopamine D3 receptor expressed in CHO cells; type: cell-based
[10] = target: T4, D(4) dopamine receptor (Homo sapiens) (UniProt P21917); test: In vitro functional assay measuring the [3H]thymidine uptake in growing CHO cells stably expressing the dopamine D4.2 receptor was performed; type: cell-based
T4 sequence (whole entry): T2 sequence (P21917 whole entry)

D(4) dopamine receptor [11] = target: T2, D(4) dopamine receptor; test: In vitro binding affinity to displace [3H]-spiperone from the cloned human dopamine receptor D4 in CHO cells; type: cell-based
D(2) dopamine receptor [12] = target: T3, D(2) dopamine receptor; test: In vitro binding affinity to displace [3H]spiperone from the cloned human dopamine receptor D2 short in CHO cells; type: cell-based
D(2) dopamine receptor [13] = target: T3, D(2) dopamine receptor; test: In vitro binding affinity to displace [3H]spiperone from the cloned human dopamine receptor D2 long in CHO cells; type: cell-based
D(3) dopamine receptor [14] = target: T1, D(3) dopamine receptor; test: In vitro binding affinity to displace [3H]spiperone from the cloned human dopamine receptor D3 in CHO cells; type: cell-based

Sequence of D(1A) dopamine receptor (Q95136 whole entry): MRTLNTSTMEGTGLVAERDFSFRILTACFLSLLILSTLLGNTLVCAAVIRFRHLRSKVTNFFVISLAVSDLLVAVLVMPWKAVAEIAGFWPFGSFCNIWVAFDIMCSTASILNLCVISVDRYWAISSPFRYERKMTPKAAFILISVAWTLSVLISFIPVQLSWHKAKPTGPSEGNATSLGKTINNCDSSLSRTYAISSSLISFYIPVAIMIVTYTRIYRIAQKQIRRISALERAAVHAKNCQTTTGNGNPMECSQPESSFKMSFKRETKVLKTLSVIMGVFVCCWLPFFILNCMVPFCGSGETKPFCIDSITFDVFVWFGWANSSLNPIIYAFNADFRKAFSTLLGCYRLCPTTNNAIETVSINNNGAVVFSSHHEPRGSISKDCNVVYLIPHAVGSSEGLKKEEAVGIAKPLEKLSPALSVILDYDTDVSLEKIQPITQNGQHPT
T3 sequence (P14416 whole entry): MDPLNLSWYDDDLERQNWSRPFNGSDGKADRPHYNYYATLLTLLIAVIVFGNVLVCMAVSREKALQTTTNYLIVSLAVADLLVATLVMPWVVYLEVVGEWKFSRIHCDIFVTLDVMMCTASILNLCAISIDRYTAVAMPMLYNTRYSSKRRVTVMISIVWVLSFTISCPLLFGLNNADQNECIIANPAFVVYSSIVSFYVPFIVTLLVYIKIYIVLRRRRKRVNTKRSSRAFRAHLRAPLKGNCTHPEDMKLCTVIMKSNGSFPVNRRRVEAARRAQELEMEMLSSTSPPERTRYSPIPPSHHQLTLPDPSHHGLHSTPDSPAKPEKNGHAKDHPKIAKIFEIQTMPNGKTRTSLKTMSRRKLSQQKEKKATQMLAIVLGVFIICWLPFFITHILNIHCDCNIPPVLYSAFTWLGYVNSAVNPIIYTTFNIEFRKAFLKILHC
T1 sequence (P35462 whole entry): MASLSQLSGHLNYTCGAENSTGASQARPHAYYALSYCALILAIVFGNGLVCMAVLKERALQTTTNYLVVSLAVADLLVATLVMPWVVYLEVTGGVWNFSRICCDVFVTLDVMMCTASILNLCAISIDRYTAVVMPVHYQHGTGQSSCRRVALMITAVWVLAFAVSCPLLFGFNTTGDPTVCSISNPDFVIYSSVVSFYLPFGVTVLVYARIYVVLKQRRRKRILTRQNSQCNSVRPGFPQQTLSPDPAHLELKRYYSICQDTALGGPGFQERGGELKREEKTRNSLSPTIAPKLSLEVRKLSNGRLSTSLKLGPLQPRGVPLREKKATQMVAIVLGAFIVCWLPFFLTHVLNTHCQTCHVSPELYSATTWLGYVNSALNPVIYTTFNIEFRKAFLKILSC

Compound: COc1ccc(Br)cc1C1=NCC[C@H](CN2CCN(c3ccccc3)CC2)N1
- Ki (D(3) dopamine receptor [1]): 7.4 µM
- Ki (D(4) dopamine receptor [2]): 1.6 µM
- Ki (D(2) dopamine receptor [3]): 43 µM
- Ki (D(2) dopamine receptor [4]): 44 µM
- Ki (D(1A) dopamine receptor): 15 µM

Compound: c1ccc(C2=N[C@@H](CN3CCN(c4ccccc4)CC3)CCN2)cc1
- Ki (D(2) dopamine receptor [5]): 25 µM
- EC50 (D(4) dopamine receptor [6]): 0.05 µM
- Ki (D(4) dopamine receptor [7]): 0.0015 µM
- Ki (D(2) dopamine receptor [8]): 32 µM
- Ki (D(1A) dopamine receptor): 29 µM
- Ki (D(3) dopamine receptor [9]): 13 µM

Compound: O=C1C[C@@H](CN2CCN(c3ccccc3)CC2)N=C(c2ccccc2)N1
- Ki (D(3) dopamine receptor [1]): 20 µM
- Ki (D(4) dopamine receptor [2]): 3.7 µM
- Ki (D(2) dopamine receptor [3]): 6.4 µM
- Ki (D(2) dopamine receptor [4]): 18 µM
- Ki (D(1A) dopamine receptor): 8.9 µM

Compound: c1ccc(C2=NC[C@H](N3CCN(c4ccccc4)CC3)CCN2)cc1
- Ki (D(3) dopamine receptor [1]): 12 µM
- Ki (D(4) dopamine receptor [2]): 0.12 µM
- Ki (D(2) dopamine receptor [3]): 4.2 µM
- Ki (D(2) dopamine receptor [4]): 10 µM
- Ki (D(1A) dopamine receptor): 23 µM

Compound: c1ccc(C2=NCC(N3CCN(c4ccccc4)CC3)CCN2)cc1 (single isomer, unassigned)
- Ki (D(3) dopamine receptor [1]): 3.3 µM
- Ki (D(4) dopamine receptor [2]): 4.4 µM
- Ki (D(2) dopamine receptor [3]): 14 µM
- Ki (D(2) dopamine receptor [4]): 19 µM
- Ki (D(1A) dopamine receptor): 23 µM

Compound: c1ccc(C2=NCC[C@H](CN3CCN(c4ccccc4)CC3)N2)cc1
- Stimulation [10]: 83%

Compound: c1ccc(C2=NCC[C@@H](CN3CCN(c4ccccc4)CC3)N2)cc1
- Ki (D(4) dopamine receptor [11]): 0.31 µM
- Ki (D(2) dopamine receptor [12]): 30 µM
- Ki (D(2) dopamine receptor [13]): 29 µM
- Ki (D(1A) dopamine receptor): 39 µM
- Ki (D(3) dopamine receptor [14]): 13 µM

Compound: COc1ccc(Br)cc1C1=NCC[C@@H](CN2CCN(c3ccccc3)CC2)N1
- Ki (D(3) dopamine receptor [1]): 1.9 µM
- Ki (D(4) dopamine receptor [2]): 3.5 µM
- Ki (D(2) dopamine receptor [3]): 14 µM
- Ki (D(2) dopamine receptor [4]): 16 µM
- Ki (D(1A) dopamine receptor): 9.1 µM

Compound: O=C1C[C@H](CN2CCN(c3ccccc3)CC2)N=C(c2ccccc2)N1
- Ki (D(3) dopamine receptor [1]): 12 µM
- Ki (D(4) dopamine receptor [2]): 0.46 µM
- Ki (D(2) dopamine receptor [3]): 2.8 µM
- Ki (D(2) dopamine receptor [4]): 7.3 µM
- Ki (D(1A) dopamine receptor): 19 µM
